According to patent publication US9808426B2, “Ternary mixture formulations” (priority 2011, dated 2017):

Columns and labels:
[1] = In vivo pharmacokinetic analysis after oral administration to jugular vein-cannulated rats; conditions: fenofibrate 145 mg/70 kg, plasma fenofibric acid
Method: The study was performed on jugular vein-cannulated rats weighing from 200 to 250 gm (n=4). […] Blood samples were collected at various time intervals over a 48 hour period after administration. The samples were collected into heparinized tubes through the jugular vein cannulation, centrifuged at 5000 rpm for 5 minutes. Each 50 μl plasma sample was treated with 10 μl of 50% methanol and 10 μl of an internal standard (Indomethacin), and then mixed by vortexing for 30 seconds. To that mixture, 200 μl of acetonitrile was added, followed by one minute of vortexing, centrifugation at 14,000 rpm for five minutes. […] Indomethacin was used as an internal standard for the LCMS analyis. Standard non-compartmental pharmacokinetic parameters were calculated. Briefly, noncompartmental pharmacokinetic analysis is dependent on estimation of total drug exposure. Total drug exposure is most often estimated by area under the curve (AUC) using the trapezoidal rule (numerical integration) method. Due to the dependence on the length of ‘x’ in the trapezoidal rule, the area estimation is dependent on the blood/plasma sampling schedule. That is, the closer time points are, the closer the trapezoids reflect the actual shape of the concentration-time curve.

[2] = In vitro dissolution, USP Type II apparatus, simulated gastric fluid pH 1.2 without enzymes; assay type: physicochemical; conditions: itraconazole 100 mg, 900 ml simulated gastric fluid pH 1.2, 100 rpm, 37°C
Method: The dissolution profile of pure itraconazole was compared to the dissolution profile itraconazole from the free-flowing powder formulation that was made by the process described in Example 3. The amount of free flowing powder formulation used in the dissolution studies was equivalent to amount of the formulation containing 100 mg of itraconazole. The amount of pure itraconazole used as a control in the studies was also 100 mg. […] The analysis was performed using a USP Type II dissolution apparatus with the paddle speed and temperature maintained at 100 rpm and 37±0.5° C. Three ml aliquots were removed at 10, 20, 30, 45 and 60 minute intervals. Subsequently, the amount of itraconazole in each of the aliquots was determined by using an HP Agilent® 1100 series HPLC system (Agilent Technologies, Inc., Santa Clara, Calif.). The mobile phase solution used in the HPLC system consisted of 65% acetonitrile and 35% 10 mM potassium dihydrogen phosphate. The solution was pumped through a Phenomenex® Luna 5 μm C-18 (dimension: 150 mm×4.6 mm) column (Phenomenex Corp., Torrance Calif.) at a flow rate of 1.3 ml/min. Itraconazole was detected at a wavelength of 263 nm. […] Subsequently, the amount of itraconazole in each of the aliquots was determined by using an HP Agilent® 1100 series HPLC system (Agilent Technologies, Inc., Santa Clara, Calif.). […] Itraconazole was detected at a wavelength of 263 nm. […]

SMILES: CCC(C)n1ncn(-c2ccc(N3CCN(c4ccc(OCC5COC(Cn6cncn6)(c6ccc(Cl)cc6Cl)O5)cc4)CC3)cc2)c1=O (centres unmarked) [pure drug, itraconazole]
- AUMC0-t [1]: 436.7 µg·h/mL
- CL [1]: 0.07 L/h
- Cmax [1]: 7200 ng/mL
- MRT (mean residence time) [1]: 9.15 h
- t1/2 [1]: 7.18 h
- tmax [1]: 2.5 h
- AUC0-t (AUC0-48) ([1]; over 48 hours): 51 µg·h/mL
- drug release in 10 min [2]: less than 1%
